Test [1] has as its target T1, interaction between recombinant K-Ras4B G12C mutant protein and cRAF RAS-binding domain (cRAF-RBD) (Homo sapiens, UniProt P01116, G12C).
T1 construct: made in house; host or cells: E. coli
The test is described as follows: Inhibitory activity on interaction between KRAS G12C and cRAF (Alpha technology). The class given is biochemical. The conditions noted are these: GMPPNP-bound KRAS G12C incubated with compound at 25° C. for 1 hour, then cRAF-RBD; Alpha signal. The method, boiled down:
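Alpha readout of cRAF-RBD (aa 50-132) binding to KRAS G12C (aa 1-169) after 1.5 h RT, following 1 h, 25° C compound preincubation with GMPPNP-bound protein (pH 7.5 Tris, 1 mM MgCl2, TCEP, Tween 20). IC50 fitted from titrations, with GDP-bound KRAS as 100% and DMSO as 0% inhibition.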

Test [2] deals with Gppcp-bound recombinant K-Ras4B G12C mutant protein (amino acids 1-169, C51S/C80L/C118S) (Homo sapiens, UniProt P01116, C118S/C51S/C80L/G12C). The test is described as follows: KRASG12C binding assay (LC-MS, compound binding rate). Conditions: test compound final concentration 0.5 μM, 25° C., 1 hour. A digest of the protocol: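 Covalent adduct formation measured by deconvoluted intact-mass LC-MS after 1 h at 25 °C with compound at 0.5 μM final and 50 nM Gppcp-loaded KRAS G12C (residues 1-169, C51S/C80L/C118S). Buffer: TBS, 0.1 mM TCEP, 0.25 mM MgCl2, 50 μM Gppcp. Binding % = one-molecule adduct/(unbound + all adducts), binned A ≥80, B 60–80, C 40–60, D 20–40, E <20.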

In another test the test system is MIA PaCa-2 cells. Briefly: Growth inhibition activity on KRAS-G12C mutant cell line (MIA PaCa-2), CellTiter-Glo 3D. In kind it is cell-based, human. The conditions noted are these: MIA PaCa-2, 3-day culture with compound. The method, boiled down:
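Luminescence readout (CellTiter-Glo 3D) after 3 days of compound treatment at 37 °C, 5% CO2, 0.2% final DMSO, gave % growth inhibition versus no-compound wells, from which IC50 (nM) was derived; cells had been plated in 10% FBS RPMI1640 one day before dosing.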
A general note: Cellular ATP, detected with luciferase, serves as a proxy for viable cell number.

Drawing on US20240246968A1, “SMALL MOLECULE INHIBITORS OF KRAS G12C MUTANT” (Merck Sharp & Dohme LLC, priority 2021, published 2024), this text covers IC50 and binding rate for 15 compounds.

pIC50: −log10 of the molar value.

Usually pIC50 stands for the negative decadic logarithm of the IC50, by convention in mol/L. For `CO[C@H]1CC[C@H](NC/C=C/C(=O)Nc2c(F)cc(C(=O)c3ccc4c(-c5c(C)cc6c(ncn6C)c5Cl)cccn34)cc2F)CC1` (single isomer, unassigned) [Example 12-1, (E)-N-(4-(8-(4-chloro-1,6-dimethyl-1H-benzo[d]imidazol-5-yl)indolizine-3-carbonyl)-2,6-difluorophenyl)-4-(((1r,4r)-4-methoxycyclohexyl)amino)but-2-enamide], the pIC50 in test [1] was 7.54; with MIA PaCa-2 cells, 7.10. Also, the binding rate entry in test [2] was “A (A binding rate of 80% or more is rated “A”)”.
For `CO[C@H]1CC[C@H](NC/C=C/C(=O)Nc2c(F)cc(C(=O)c3ccc4c(-c5cc6ncn(C)c6cc5O)cccn34)cc2F)CC1` [Example 23, (E)-N-(2,6-difluoro-4-(8-(6-hydroxy-1-methyl-1H-benzo[d]imidazol-5-yl)indolizine-3-carbonyl)phenyl)-4-(((1r,4r)-4-methoxycyclohexyl)amino)but-2-enamide], the pIC50 in test [1] was 7.64; in the test on MIA PaCa-2 cells (Homo sapiens, MIA PaCa-2, 72 h), 6.28. In test [2], the binding rate entry is recorded as “A (A binding rate of 80% or more is rated “A”)”.
As to `COc1cc(N2CCCC2=O)cc(Cl)c1-c1cccn2c(C(=O)c3cc(F)c(NC(=O)/C=C/CNC(C)(C)C)c(F)c3)ccc12` [Example 21, (E)-4-(tert-butylamino)-N-(4-(8-(2-chloro-6-methoxy-4-(2-oxopyrrolidin-1-yl)phenyl)indolizine-3-carbonyl)-2,6-difluorophenyl)but-2-enamide], the pIC50 was 7.01 in test [1] and 6.74 in the test with MIA PaCa-2 cells (Homo sapiens, MIA PaCa-2, 72 h). Further, the binding rate entry in test [2] was “A (A binding rate of 80% or more is rated “A”)”.
Regarding `COc1c(-c2cccn3c(C(=O)c4cc(F)c(NC(=O)/C=C/CNC5(C)CC5)c(F)c4)cnc23)c(C(F)(F)F)cc2c1nc(C)n2C` (single isomer, unassigned) [Example 105-1, (E)-N-(2,6-difluoro-4-(8-(4-methoxy-1,2-dimethyl-6-(trifluoromethyl)-1H-benzo[d]imidazol-5-yl)imidazo[1,2-a]pyridine-3-carbonyl)phenyl)-4-((1-methylcyclopropyl)amino)but-2-enamide], the pIC50 in test [1] is 7.53; with MIA PaCa-2 cells, 7.64. Further, the binding rate result in test [2] is “A (A binding rate of 80% or more is rated “A”)”.
On to `CO[C@H]1CC[C@H](NC/C=C/C(=O)Nc2c(F)cc(C(=O)c3ccc4c(-c5cc6nc(C)n(C)c6cc5C(F)(F)F)nccn34)cc2F)CC1` [Example 115, (E)-N-(4-(1-(1,2-dimethyl-6-(trifluoromethyl)-1H-benzo[d]imidazol-5-yl)pyrrolo[1,2-a]pyrazine-6-carbonyl)-2,6-difluorophenyl)-4-(((1r,4r)-4-methoxycyclohexyl)amino)but-2-enamide], for which the negative logarithm of the IC50 (pIC50) in test [1] was 6.34; in the test with MIA PaCa-2 cells (Homo sapiens, MIA PaCa-2, 72 h), 6.60. Moreover, the binding rate entry in test [2] was “B (a binding rate of 60% or more and less than 80% is rated “B”)”.
In the case of `Cn1cnc2c(Cl)c(-c3cccn4c(C(=O)c5cc(F)c(NC(=O)/C=C/CNC(C)(C)C)c(F)c5)ccc34)c(Cl)cc21` (single isomer, unassigned) [Example 20-2, (E)-4-(tert-butylamino)-N-(4-(8-(4,6-dichloro-1-methyl-1H-benzo[d]imidazol-5-yl)indolizine-3-carbonyl)-2,6-difluorophenyl)but-2-enamide], the pIC50 in test [1] is 7.48; with MIA PaCa-2 cells, 7.23. In addition, in test [2], the binding rate entry was “A (A binding rate of 80% or more is rated “A”)”.
As for `Cc1nc2c(Cl)c(-c3cccn4c(C(=O)c5cc(F)c(NC(=O)/C=C/CNC6CCOCC6)c(F)c5)ccc34)c(C(F)(F)F)cc2n1C` (single isomer, unassigned) [Example 57-2, (E)-N-(4-(8-(4-chloro-1,2-dimethyl-6-(trifluoromethyl)-1H-benzo[d]imidazol-5-yl)indolizine-3-carbonyl)-2,6-difluorophenyl)-4-((tetrahydro-2H-pyran-4-yl)amino)but-2-enamide], the results for the pIC50 (in test [1]; in the test with MIA PaCa-2 cells) were 6.10 and 5.96, respectively. For the same compound, in test [2], the binding rate entry is recorded as “A (A binding rate of 80% or more is rated “A”)”.
As for `CO[C@H]1CC[C@H](NC/C=C/C(=O)Nc2c(F)cc(C(=O)c3ccc4c(-c5cc6[nH]c(=O)n(C)c6cc5C(F)(F)F)cccn34)cc2F)CC1` [Example 110, (E)-N-(2,6-difluoro-4-(8(1-methyl-2-oxo-6-(trifluoromethyl)-2,3-dihydro-1H-benzo[d]imidazol-5-yl)indolizine-3-carbonyl)phenyl)-4-(((1r,4r)-4-methoxycyclohexyl)amino)but-2-enamide], the pIC50 in test [1] is 7.09; in the test on MIA PaCa-2 cells (Homo sapiens, MIA PaCa-2, 72 h) it was 6.74. Also, the binding rate result in test [2] is listed as “A (A binding rate of 80% or more is rated “A”)”.
The matching figures for `Cn1cnc2cc(-c3cccn4c(C(=O)c5cc(F)c(NC(=O)/C=C/CNC6CCOCC6)c(F)c5)ccc34)c(C(F)(F)F)cc21` [Example 9, (E)-N-(2,6-difluoro-4-(8-(1-methyl-6-(trifluoromethyl)-1H-benzo[d]imidazol-5-yl)indolizine-3-carbonyl)phenyl)-4-((tetrahydro-2H-pyran-4-yl)amino)but-2-enamide]: 7.57, 7.09 and “A (A binding rate of 80% or more is rated “A”)”.
Turning to `COc1c(-c2cccn3c(C(=O)c4cc(F)c(NC(=O)/C=C/CN[C@H]5CC[C@H](OC)CC5)c(F)c4)cnc23)c(C(F)(F)F)cc2c1nc(C)n2C` (single isomer, unassigned) [Example 83-1, (E)-N-(2,6-difluoro-4-(8-(4-methoxy-1,2-dimethyl-6-(trifluoromethyl)-1H-benzo[d]imidazol-5-yl)imidazo[1,2-a]pyridine-3-carbonyl)phenyl)-4-(((1r,4r)-4-methoxycyclohexyl)amino)but-2-enamide], the pIC50 (in test [1]; in the test with MIA PaCa-2 cells) was 7.80 each time. In test [2], the binding rate entry is on record as “A (A binding rate of 80% or more is rated “A”)”.
Turning to `CO[C@H]1CC[C@H](NC/C=C/C(=O)Nc2c(F)cc(C(=O)c3ccc4c(-c5c(Cl)cc6c(ncn6C)c5Cl)cccn34)cc2F)CC1` (single isomer, unassigned) [Example 15-2, (E)-N-(4-(8-(4,6-dichloro-1-methyl-1H-benzo[d]imidazol-5-yl)indolizine-3-carbonyl)-2,6-difluorophenyl)-4-(((1r,4r)-4-methoxycyclohexyl)amino)but-2-enamide], the pIC50 in test [1] was 6.72; in the test with MIA PaCa-2 cells it was 6.66. In test [2], the binding rate result is on record as “A (A binding rate of 80% or more is rated “A”)”.
With `COc1cc2c(cc1-c1cccn3c(C(=O)c4cc(F)c(NC(=O)/C=C/CNC(C)(C)C)c(F)c4)ccc13)nc(C)n2C` [Example 5, (E)-4-(tert-butylamino)-N-(2,6-difluoro-4-(8-(6-methoxy-1,2-dimethyl-1H-benzo[d]imidazol-5-yl)indolizine-3-carbonyl)phenyl)but-2-enamide], the pIC50 in test [1] is 7.12; in the test on MIA PaCa-2 cells (Homo sapiens, MIA PaCa-2, 72 h) it was 7.35. For the same compound, in test [2], the binding rate result is listed as “A (A binding rate of 80% or more is rated “A”)”.
Consider `CO[C@H]1CC[C@H](NC/C=C/C(=O)Nc2c(F)cc(C(=O)c3ccc4c(-c5c(C(F)(F)F)cc6c(nc(C)n6C)c5Cl)cccn34)cc2F)CC1` (single isomer, unassigned) [Example 32-1, (E)-N-(4-(8-(4-chloro-1,2-dimethyl-6-(trifluoromethyl)-1H-benzo[d]imidazol-5-yl)indolizine-3-carbonyl)-2,6-difluorophenyl)-4-(((1r,4r)-4-methoxycyclohexyl)amino)but-2-enamide], for which the pIC50 is 7.68 in test [1] and 7.85 in the test with MIA PaCa-2 cells. In addition, in test [2], the binding rate entry was “A (A binding rate of 80% or more is rated “A”)”.
The matching figures for `CCc1cc2c(nc(C)n2C)c(Cl)c1-c1cccn2c(C(=O)c3cc(F)c(NC(=O)/C=C/CN[C@H]4CC[C@H](OC)CC4)c(F)c3)ccc12` (single isomer, unassigned) [Example 22-1, (E)-N-(4-(8-(4-chloro-6-ethyl-1,2-dimethyl-1H-benzo[d]imidazol-5-yl)indolizine-3-carbonyl)-2,6-difluorophenyl)-4-(((1r,4r)-4-methoxycyclohexyl)amino)but-2-enamide]: 7.64, 7.14 and “A (A binding rate of 80% or more is rated “A”)”.
`Cc1nc2cc(-c3cccn4c(C(=O)c5cc(F)c(NC(=O)/C=C/CNC6CCN(C)C(=O)C6)c(F)c5)ccc34)c(C(F)(F)F)cc2n1C` (stereo not drawn) [Example 72, (E)-N-(4-(8-(1,2-dimethyl-6-(trifluoromethyl)-1H-benzo[d]imidazol-5-yl)indolizine-3-carbonyl)-2,6-difluorophenyl)-4-((1-methyl-2-oxopiperidin-4-yl)amino)but-2-enamide]: the pIC50 in test [1] is 7.05; in the test with MIA PaCa-2 cells (Homo sapiens, MIA PaCa-2, 72 h), 7.00. In addition, the binding rate entry in test [2] is recorded as “A (A binding rate of 80% or more is rated “A”)”.
